Assay results published in patent US7371414B2, “Therapeutic and diagnostic methods dependent on CYP2A enzymes” (Nicogen, Inc., priority 1997, dated 2008).
Like-named read-outs stand apart in the source and are kept apart here. Each block holds one compound with its values, some of them ahead of it.

What was measured:
CYP2A6 [1] = biological target: T1, CYP2A6 (Homo sapiens, UniProt P11509); settings: nicotine 4.0 mg p.o.; for increase in plasma nicotine: p<0.01
T1 sequence (P11509 1-494): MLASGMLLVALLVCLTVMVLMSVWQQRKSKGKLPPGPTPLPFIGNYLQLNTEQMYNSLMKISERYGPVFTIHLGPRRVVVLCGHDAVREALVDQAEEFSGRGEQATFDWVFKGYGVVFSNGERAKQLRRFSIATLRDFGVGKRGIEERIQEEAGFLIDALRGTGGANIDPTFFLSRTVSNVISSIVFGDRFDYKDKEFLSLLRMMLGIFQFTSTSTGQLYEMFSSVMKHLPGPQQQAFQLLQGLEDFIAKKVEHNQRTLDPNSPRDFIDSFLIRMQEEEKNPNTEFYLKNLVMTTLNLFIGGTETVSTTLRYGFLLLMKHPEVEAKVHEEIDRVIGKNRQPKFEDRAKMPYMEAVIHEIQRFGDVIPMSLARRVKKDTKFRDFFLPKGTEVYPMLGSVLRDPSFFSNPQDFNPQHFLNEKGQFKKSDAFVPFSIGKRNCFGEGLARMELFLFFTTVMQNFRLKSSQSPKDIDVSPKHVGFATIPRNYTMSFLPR

CYP2A6 [2] = biological target: T1, CYP2A6; test: Effect of methoxsalen on nicotine metabolism in tobacco dependent smokers (Example 6); type: in vivo; parameters: from tissue; host or cells: human smokers in vivo (hepatic CYP2A6); settings: methoxsalen 10 mg t.i.d. p.o.
Method: Subjects were recruited only if they smoked at least 15 cigarette per day, and were required to smoke the same number of cigarettes each day, on all four study days. During assessment, blood was taken to be analyzed for plasma nicotine and cotinine levels, as well as for CYP2A6 genotyping. Breath carbon monoxide was also measured.
During each study day a smoking log was completed. This log asked subjects to document the number of cigarette smoked from 8:00 a.m. to […]., and 10:00 p.m. to 8:00 a.m. Study days 1 and 2 could be separated, but days 2, 3 and 4 were required to be consecutive.
On both study days 1 (placebo) and 4 (treatment), a 24 h urine collection was initiated on waking. At 2:00 p.m. blood was drawn for nicotine and cotinine analysis and breath carbon monoxide was measured. […] Urine samples can be analyzed for 24 h NNAL, NNAL glucuronide, creatinine and cotinine.

CYP2A6 [3] = biological target: T1, CYP2A6; test: In vitro inhibition of nicotine metabolism in expressed CYP2A6
CYP2A6 [4] = biological target: T1, CYP2A6; test: Effect of esculetin on nicotine metabolism by human liver microsomes; type: biochemical; parameters: from tissue; host or cells: human smokers in vivo (hepatic CYP2A6); settings: FIG. 19
Method: Nicotine metabolism was monitored in vitro. Inhibitor assessment was carried out by comparing the assay including 50 μl tris buffer with the extracts prepared in Example 11 (50 μl, diluted in tris buffer). Human liver microsomes or CYP2A6 microsomes were used. The concentration of inhibitor in Hypericum was calculated on the basis of an apparent molecular weight of the inhibitor of 504 and a concentration of 0.3% active material in the plant material when diluting to yield concentrations of […] μM.
• Substrate 80 μM (50 μl tris buffer) • NADPH1 mM (50 μl tris buffer) • Microsomes 80 μg (30 μl tris buffer) • Cytosol (rat) 20 μl (tris buffer) • Tris buffer 50 μl (pH7.4) • Final volume […] Incubation Procedure:
The incubation was carried out at 37° C. for 30 min. An internal standard (50 μl, caffeine, 0.05 mg/ml) was added to the incubation mixture, followed by DCM (1 ml). The mixture was shaken for 10 min and centrifuged for 5 min at 3,000 g. The top layer was aspirated. HC1 (0.01 N, 100 μl) was added, followed by shaking for 1 min, then centrifuge for 5 min at 3,000 g. 30 μl of the HCl layer was injected for HPLC. […]

CYP2A6 [5] = test: In vivo phenotype assay: plasma kinetics of nicotine and coumarin after oral administration by CYP2A6 genotype; settings: both, human, 4 mg, plasma nicotine, 90 min after nicotine 4.0 mg oral
Method: The plasma kinetics of nicotine and coumarin were compared after oral administration in 10 smokers and 9 non-smokers (12 males, 7 females) of known CYP2A6 genotype. The dose of nicotine was 4.0 mg (expressed as base) and the dose of coumarin was 50 mg. The plasma concentration of nicotine, cotinine, coumarin and 7-OH-coumarin were measured as described above.

[6] = cited from earlier work
CYP2A6 [7] = biological target: T1, CYP2A6; test: Inhibition of nicotine metabolism to cotinine in test livers; type: biochemical; parameters: from tissue; host or cells: human smokers in vivo (hepatic CYP2A6)

desire to smoke (CYP2A6 [1]; inhibitor dose 10 mg (M10)): significant (p<0.05) decrease
desire to smoke (CYP2A6 [1]; inhibitor dose 30 mg (M30)): significant (p<0.05) decrease
decrease in breath CO (CYP2A6 [2]; day 4 vs placebo day): 11%
increase in plasma nicotine (CYP2A6 [2]; day 4 vs placebo day): 17%
breath CO (CYP2A6 [2]; treatment day 4): 20.5 ppm
plasma nicotine (CYP2A6 [2]; treatment day 4): 27 ng/mL
Structure (SMILES): COc1c2occc2cc2ccc(=O)oc12 [methoxsalen]

Structure (SMILES): N[C@@H]1C[C@H]1c1ccccc1 (racemic) [tranylcypromine]
desire to smoke (CYP2A6 [1]; inhibitor dose 2.5 mg (T2.5), p=0.17): significant (p<0.05) decrease
increase in plasma nicotine (CYP2A6 [1]; inhibitor dose 2.5 mg): ~100%
increase in plasma nicotine (CYP2A6 [1]; inhibitor dose 10 mg): ~100%
plasma nicotine compared to placebo (in words) (CYP2A6 [1]; methoxsalen 3 mg, 10 mg or 30 mg, tranylcypromine 2.5 mg or 10 mg): significantly increased
inhibition of CYP2A6 (in words) (CYP2A6 [3]): potent inhibitors of CYP2A6

Structure (SMILES): O=c1ccc2cc(O)c(O)cc2o1 [esculetin]
inhibition of nicotine metabolism by CYP2A6 (in words) (CYP2A6 [4]): potent inhibitor of CYP2A6

Structure (SMILES): CN1CCCC1c1cccnc1 (stereo not drawn) [nicotine]
concentration at 90 min (CYP2A6 [5]; genotype *1/*1): 24 ± 15 nM
concentration at 90 min (CYP2A6 [5]; genotype *1/*2 or *1/*3): 29 ± 12 nM
concentration at 90 min (CYP2A6 [5]; genotype *2/*2): 52 ± 3 nM
share of nicotine metabolized to the inactive metabolite cotinine ([6]; in humans): 60-85%
share of nicotine metabolized by CYP2A6 in vivo ([6]; in vivo): approximately 75%
share of oral nicotine metabolized to cotinine by the liver ([6]; oral, first pass): 60-85%
nicotine bioavailability ([6]; oral): 20-35%
share of oral nicotine that reaches the systemic circulation ([6]; oral): 15-40%

inhibition of nicotine metabolism to cotinine (CYP2A6 [7]): 84%±11%
Structure (SMILES): O=c1ccc2ccccc2o1 [coumarin]
